In patent US7001887B2, “Peptide derivatives” (priority 2001, dated 2006):
Like-named read-outs stand apart in the source and are kept apart here.

Columns and labels:
[1] = target: human factor VIIa (Homo sapiens, UniProt P08709); assay: biochemical
Method: 1. Assay for FVIIa-inhibiting Activity
A 10 vol % DMSO solution of a test compound (20 μL) was mixed with 40 μL Thromborel®S (50 mg/mL, Dade Behring, GTS-200A), 20 μL Spectrozyme®fVIIa (5 mmol/L, American Diagnostica Inc., #217L), 20 μL Tris buffer (500 mmol/L Tris/HCl, pH 7.5, 1500 mmol/L NaCl, 50 mmol/L CaCl2) and 80 μL distilled water, followed by stirring. […] The initial reaction velocity was set to 100% in the case of adding 10 vol % DMSO alone, instead of a test compound. […] This concentration was defined as an IC50 value.

[2] = target: T1, human thrombin (Homo sapiens, UniProt P00734); assay: Assay for thrombin-inhibiting activity (chromogenic substrate FVR-pNa); format: biochemical; settings: for Thrombin selectivity: ratio IC50 Thrombin / IC50 Factor VIIa
T1 construct: addition of 20 μ2L human thrombin (5 U/mL, SIGMA, T 1063); purchased SIGMA T 1063

[3] = 50% inhibition of initial reaction velocity, room temperature, absorbance at 405 nm, read-out: IC50 Thrombin

Chain of human factor VIIa (P08709 213-466 limits assumed): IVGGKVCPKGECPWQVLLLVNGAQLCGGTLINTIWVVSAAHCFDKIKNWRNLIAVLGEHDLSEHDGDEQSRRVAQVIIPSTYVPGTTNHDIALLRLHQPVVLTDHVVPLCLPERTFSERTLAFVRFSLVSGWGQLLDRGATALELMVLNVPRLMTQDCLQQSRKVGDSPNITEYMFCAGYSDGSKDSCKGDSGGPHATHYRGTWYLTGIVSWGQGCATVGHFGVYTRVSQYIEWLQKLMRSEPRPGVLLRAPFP
Chain of human factor VIIa (P08709 61-212 limits assumed): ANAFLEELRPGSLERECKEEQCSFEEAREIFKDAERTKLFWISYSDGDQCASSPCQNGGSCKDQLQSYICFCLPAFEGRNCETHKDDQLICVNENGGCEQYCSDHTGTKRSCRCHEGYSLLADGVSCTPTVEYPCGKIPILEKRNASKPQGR
Chain of human factor VIIa (P13726 33-295 partner): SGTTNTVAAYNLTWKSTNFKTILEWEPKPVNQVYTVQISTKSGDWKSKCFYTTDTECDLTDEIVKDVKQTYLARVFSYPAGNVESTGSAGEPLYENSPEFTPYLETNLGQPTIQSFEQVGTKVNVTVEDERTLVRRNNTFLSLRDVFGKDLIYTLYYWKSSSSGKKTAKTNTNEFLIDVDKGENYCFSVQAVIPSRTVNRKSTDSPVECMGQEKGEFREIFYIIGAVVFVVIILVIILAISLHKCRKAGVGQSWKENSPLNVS

SMILES | IC50 [1] [µM] | IC50 [2, 3] [µM] | Thrombin selectivity [2] | IC50 [2] [µM]
CCS(=O)(=O)N[C@H](Cc1c[nH]c2ccccc12)C(=O)N[C@@H](CCC(N)=O)C(=O)NCc1ccc(C(=N)N)cc1 [Example 5, N-(Ethylsulfonyl)-D-tryptophyl-N^1-(4-amidinobenzyl)-L-glutamide] | 0.062 | 5.88 | 95 | 
N=C(N)c1ccc(CNC(=O)[C@H](CCC(N)=O)NC(=O)[C@@H](Cc2c[nH]c3ccccc23)NS(=O)(=O)Cc2cccc(C(=O)O)c2)cc1 [Example 7] | 0.037 | 17.9 | 483 | 
CCS(=O)(=O)N[C@H](Cc1c[nH]c2ccc(OCc3cccc(C(=O)O)c3)cc12)C(=O)N[C@@H](CCC(N)=O)C(=O)NCc1ccc(C(=N)N)cc1 [Example 22, 5-[(3-Carboxybenzyl)oxy]-N-(ethylsulfonyl)-D-tryptophyl-N^1-{4-[amino(imino)methyl]benzyl}-L-glutamide] | 0.039 | 17.5 |  | 
CCS(=O)(=O)N[C@H](Cc1ccc(-c2ccccc2)cc1)C(=O)N[C@@H](CCC(N)=O)C(=O)NCc1ccc(C(=N)N)cc1 [Example 65] |  | 9.42 |  | 
N=C(N)c1ccc(CNC(=O)[C@H](CCC(N)=O)NC(=O)[C@H](N)Cc2ccc(-c3ccccc3)cc2)cc1 [Example 66] | 2.94 | 59.1 | 20 | 
CCS(=O)(=O)N[C@H](Cc1ccc(-c2ccccc2)cc1)C(=O)N[C@@H](CCSC)C(=O)NCc1ccc(C(=N)N)cc1 [Example 67] | 0.341 |  | 1 | 2.28
CCS(=O)(=O)N[C@H](Cc1ccc(OC)cc1)C(=O)N[C@@H](CCC(N)=O)C(=O)NCc1ccc(C(=N)N)cc1 [Example 73] | 0.081 | 0.397 | 5 | 
CCS(=O)(=O)N[C@H](Cc1ccc(C(=O)c2ccccc2)cc1)C(=O)N[C@@H](CCC(N)=O)C(=O)NCc1ccc(C(=N)N)cc1 [Example 81] | 0.177 | 5.69 |  | 
CCS(=O)(=O)N[C@H](Cc1c[nH]c2ccc(C)cc12)C(=O)N[C@@H](CCC(N)=O)C(=O)NCc1ccc(C(=N)N)cc1 [Example 82] | 0.131 | 12.5 |  | 
CCCOc1ccc2[nH]cc(C[C@@H](NS(=O)(=O)CC)C(=O)N[C@@H](CCC(N)=O)C(=O)NCc3ccc(C(=N)N)cc3)c2c1 [Example 83] | 0.055 | 14.4 |  | 
N=C(N)c1ccc(CNC(=O)[C@H](CCC(N)=O)NC(=O)[C@@H](Cc2c[nH]c3ccccc23)NS(=O)(=O)CC(=O)O)cc1 [Example 146] | 0.153 | 80.2 | 524 | 
CCS(=O)(=O)N[C@H](Cc1c[nH]c2ccc(OC)cc12)C(=O)N[C@@H](CCC(N)=O)C(=O)NCc1ccc(C(=N)N)cc1 [Example 148] | 0.065 | 8.33 |  | 
CCS(=O)(=O)N[C@H](Cc1c[nH]c2ccc(OCc3ccccc3)cc12)C(=O)N[C@@H](CCC(N)=O)C(=O)NCc1ccc(C(=N)N)cc1 [Example 170] | 0.037 | 9.42 |  | 
